Source: paper PMC5519928, “Log D versus HPLC derived hydrophobicity: The development of predictive tools to aid in the rational design of bioactive peptoids” (Biopolymers, 2017)
Non-standard residues stand in square brackets, D forms with d. Residues, ends and D or L forms follow the SMILES beside them. Gly(N-2-aminoethyl) = NCCNCC(=O)O; Nspe = C[C@H](NCC(=O)O)c1ccccc1; Nphe = O=C(O)CNCc1ccccc1; Nlys = NCCCCNCC(=O)O

Experiment: Average hydrophobicity by analytical reverse-phase HPLC retention
Type: physicochemical
Settings: for RP-HPLC Retention (% MeCN): Supplement table 4 (chemical and physical data for peptoid library), % MeCN at elution in RP-HPLC; for RP-HPLC Retention: Table S3, representative analytical RP-HPLC traces, SB-Analytical ODH-S column 100 x 1.6 mm, 3.5 µm, 0-100% solvent B over 30 min at 220 nm, A = 95% H2O, 5% MeCN, 0.05% TFA, B = 95% MeCN, 5% H2O, 0.03% TFA
Experimental: To examine the average hydrophobicity of the peptoids, the retention time for from reverse‐phase HPLC was determined on a C18 column using acetonitrile and water, with 0.1% TFA (see Figure 3A). To find log D values, partitioning experiments were carried out, as illustrated by Figure 2. A peptoid solution (between 10 and 100 µM) in PBS was added to an equal volume of octanol and the system allowed to equilibrate under gentle agitation for ∼150 h (as 48 h was not found to be sufficient for the system to reach equilibrium). At this point it is assumed that the peptoid has partitioned between these two phases, such as to minimise its free energy.
Preparative RP‐HPLC was performed with a semi‐preparative Perkin Elmer Series 200 lc pump fitted with a 785A UV/Vis detector using a SB‐Analytical ODH‐S optimal column (250 mm × 10 mm, 5 µm); flow rate 2 mL min^−1; λ = 250 nm, typical linear gradient elution 0–50% of solvent B over 60 min (A = 0.1% TFA in 95% H2O and 5% MeCN, B = 0.1% TFA in 5% H2O and 95% MeCN). Analytical RP‐HPLC was performed with a Perkin Elmer Series 200 LC pump fitted with a Series 200 UV/Vis detector using a SB‐Analytical ODH‐S optimal column (100 mm × 1.6 mm, 3.5 µm); flow rate 1 mL min^−1; λ = 220 nm, linear gradient elution 0–100% of solvent B over 30 min (A = 0.05% TFA, 95% H2O, 5% MeCN, B = 0.03% TFA, 5% H2O, 95% MeCN).
Preparative RP-HPLC was performed with a semi-preparative Perkin Elmer Series 200 lc pump fitted with a 785A UV/Vis detector using a SB-Analytical ODH-S optimal column (250 × 10 mm, 5 µm); flow rate 2 ml min^−1; λ = 250 nm, typical linear gradient elution 0-50% of solvent B over 60 min (A = 0.1% TFA in 95% H2O and 5% MeCN, B = 0.1% TFA in 5% H2O and 95% MeCN). Analytical RP-HPLC was performed with a Perkin Elmer Series 200 LC pump fitted with a Series 200 UV/Vis detector using a SB-Analytical ODH-S optimal column (100 × 1.6 mm, 3.5 µm); flow rate 1 ml min^−1; λ = 220 nm, linear gradient elution 0-100% of solvent B over 30 min (A = 0.05% TFA, 95% H2O, 5% MeCN, B = 0.03% TFA, 5% H2O, 95% MeCN).
Table S3. Data from analytical RP-HPLC for representative compounds of this peptoid library. Analytical HPLC gradient: 0 – 100% solvent B over 30 min at 220 nm (where solvent A = 95% H2O, 5% MeCN, 0.05 % TFA; solvent B = 95% MeCN, 5% H2O, 0.03% TFA).

SMILES: NCCCCNCC(=O)N(CC(=O)N(CC(=O)N(CCCCN)CC(=O)N(CC(=O)N(CC(=O)N(CCCCN)CC(=O)N(CC(=O)N(CC(=O)N(CCCCN)CC(=O)N(CC(=O)N(CC(N)=O)Cc1ccccc1)Cc1ccccc1)Cc1ccccc1)Cc1ccccc1)Cc1ccccc1)Cc1ccccc1)Cc1ccccc1)Cc1ccccc1 [Peptoid 1] (H-[Nlys][Nphe][Nphe][Nlys][Nphe][Nphe][Nlys][Nphe][Nphe][Nlys][Nphe][Nphe]-NH2)
- RP-HPLC Retention (% MeCN): 37 % MeCN

SMILES: NCCCCNCC(=O)N(CC(=O)N(CC(=O)N(CCCCN)CC(=O)N(CC(=O)N(CC(=O)N(CCCCN)CC(=O)N(CC(=O)N(CC(N)=O)Cc1ccccc1)Cc1ccccc1)Cc1ccccc1)Cc1ccccc1)Cc1ccccc1)Cc1ccccc1 [Peptoid 2]
- RP-HPLC Retention (% MeCN): 34 % MeCN

SMILES: NCCCCNCC(=O)N(CC(=O)N(CC(=O)N(CCCCN)CC(=O)N(CC(=O)N(CC(N)=O)Cc1ccccc1)Cc1ccccc1)Cc1ccccc1)Cc1ccccc1 [Peptoid 3] (H-[Nlys][Nphe][Nphe][Nlys][Nphe][Nphe]-NH2)
- RP-HPLC Retention (% MeCN): 31 % MeCN

SMILES: C[C@@H](c1ccccc1)N(CC(N)=O)C(=O)CN(C(=O)CN(CCCCN)C(=O)CN(C(=O)CN(C(=O)CN(CCCCN)C(=O)CN(C(=O)CN(C(=O)CNCCCCN)[C@@H](C)c1ccccc1)[C@@H](C)c1ccccc1)[C@@H](C)c1ccccc1)[C@@H](C)c1ccccc1)[C@@H](C)c1ccccc1 [Peptoid 5] (H-[Nlys][Nspe][Nspe][Nlys][Nspe][Nspe][Nlys][Nspe][Nspe]-NH2)
- RP-HPLC Retention (% MeCN): 37 % MeCN
- RP-HPLC Retention: 15.3 min

SMILES: C[C@@H](c1ccccc1)N(CC(N)=O)C(=O)CN(C(=O)CN(CCCCN)C(=O)CN(C(=O)CN(C(=O)CNCCCCN)[C@@H](C)c1ccccc1)[C@@H](C)c1ccccc1)[C@@H](C)c1ccccc1 [Peptoid 6] (H-[Nlys][Nspe][Nspe][Nlys][Nspe][Nspe]-NH2)
- RP-HPLC Retention (% MeCN): 33 % MeCN
- RP-HPLC Retention: 14.4 min

SMILES: NCCNCC(=O)N(CC(=O)N(CC(=O)N(CCN)CC(=O)N(CC(=O)N(CC(=O)N(CCN)CC(=O)N(CC(=O)N(CC(=O)N(CCN)CC(=O)N(CC(=O)N(CC(N)=O)Cc1ccccc1)Cc1ccccc1)Cc1ccccc1)Cc1ccccc1)Cc1ccccc1)Cc1ccccc1)Cc1ccccc1)Cc1ccccc1 [Peptoid 7] (H-[Gly(N-2-aminoethyl)][Nphe][Nphe][Gly(N-2-aminoethyl)][Nphe][Nphe][Gly(N-2-aminoethyl)][Nphe][Nphe][Gly(N-2-aminoethyl)][Nphe][Nphe]-NH2)
- RP-HPLC Retention (% MeCN): 37 % MeCN
- RP-HPLC Retention: 15.2 min

SMILES: NCCNCC(=O)N(CC(=O)N(CC(=O)N(CCN)CC(=O)N(CC(=O)N(CC(=O)N(CCN)CC(=O)N(CC(=O)N(CC(N)=O)Cc1ccccc1)Cc1ccccc1)Cc1ccccc1)Cc1ccccc1)Cc1ccccc1)Cc1ccccc1 [Peptoid 8] (H-[Gly(N-2-aminoethyl)][Nphe][Nphe][Gly(N-2-aminoethyl)][Nphe][Nphe][Gly(N-2-aminoethyl)][Nphe][Nphe]-NH2)
- RP-HPLC Retention (% MeCN): 34 % MeCN

SMILES: NCCNCC(=O)N(CC(=O)N(CC(=O)N(CCN)CC(=O)N(CC(=O)N(CC(N)=O)Cc1ccccc1)Cc1ccccc1)Cc1ccccc1)Cc1ccccc1 [Peptoid 9] (H-[Gly(N-2-aminoethyl)][Nphe][Nphe][Gly(N-2-aminoethyl)][Nphe][Nphe]-NH2)
- RP-HPLC Retention (% MeCN): 30 % MeCN

SMILES: C[C@@H](c1ccccc1)N(CC(N)=O)C(=O)CN(C(=O)CN(CCN)C(=O)CN(C(=O)CN(C(=O)CNCCN)[C@@H](C)c1ccccc1)[C@@H](C)c1ccccc1)[C@@H](C)c1ccccc1 [Peptoid 12]
- RP-HPLC Retention (% MeCN): 33 % MeCN
